Experimental data as given in paper PMC9136576 (Acta Pharmaceutica Sinica. B, 2021).

Legend:
Assay in all cases: H2O2 reduction peroxidase assay
Type in all cases: biochemical
Details in all cases: covalent; […] protein, […] H2O2, […] min preincubation, room temperature
rhPRDX4 = molecular target: T1, rhPRDX4 (Homo sapiens, UniProt Q13162)
T1 sequence (Q13162 38-271): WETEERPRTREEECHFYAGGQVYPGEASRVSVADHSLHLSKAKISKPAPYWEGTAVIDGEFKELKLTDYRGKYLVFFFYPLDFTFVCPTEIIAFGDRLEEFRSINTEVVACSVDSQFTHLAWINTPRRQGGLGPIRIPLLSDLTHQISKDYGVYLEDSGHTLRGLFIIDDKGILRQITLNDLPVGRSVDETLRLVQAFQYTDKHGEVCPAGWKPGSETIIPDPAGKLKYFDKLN

rhPRDX6 = molecular target: T2, rhPRDX6 (Homo sapiens, UniProt P30041)
T2 sequence (P30041 2-224): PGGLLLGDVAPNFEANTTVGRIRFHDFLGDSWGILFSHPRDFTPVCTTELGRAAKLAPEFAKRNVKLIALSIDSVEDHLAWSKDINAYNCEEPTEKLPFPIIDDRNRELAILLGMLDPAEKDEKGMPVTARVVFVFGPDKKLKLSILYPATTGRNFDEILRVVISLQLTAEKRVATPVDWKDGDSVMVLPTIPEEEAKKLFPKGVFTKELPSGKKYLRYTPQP

rhPRDX2 = molecular target: T3, rhPRDX2 (Homo sapiens, UniProt P32119)
T3 sequence (P32119 2-198): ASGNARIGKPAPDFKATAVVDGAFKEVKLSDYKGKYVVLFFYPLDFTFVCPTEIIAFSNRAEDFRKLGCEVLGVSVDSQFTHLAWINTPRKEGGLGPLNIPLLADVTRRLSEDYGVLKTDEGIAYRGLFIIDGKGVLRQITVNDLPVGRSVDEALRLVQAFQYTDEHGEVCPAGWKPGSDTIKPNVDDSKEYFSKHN

SMILES: CC1=C(O)C(=O)C=C2C1=CC=C1[C@@]2(C)CC[C@@]2(C)[C@@H]3C[C@](C)(C(=O)O)CC[C@]3(C)CC[C@]12C [celastrol]
- % inhibition at 5 μmol/L (rhPRDX4): celastrol could significantly suppress the peroxidase activity of rhPRDXs for H2O2 reduction
- % inhibition at 5 μmol/L (rhPRDX6): celastrol could significantly suppress the peroxidase activity of rhPRDXs for H2O2 reduction
- % inhibition at 5 μmol/L (rhPRDX2): celastrol could significantly suppress the peroxidase activity of rhPRDXs for H2O2 reduction
